Experimental data: paper PMC4364341, “NBD delivery improves the disease phenotype of the golden retriever model of Duchenne muscular dystrophy” (Skeletal Muscle, 2014)

Assays:
[1] = test system: mdx mice; assay: Histopathology of quadriceps muscles of NBD-treated mdx mice; assay type: in vivo, mouse; details: 4 weeks, Quad muscles
Description: Mdx mice (C57BL/10ScSn-DMD^mdx/J) were purchased from The Jackson Laboratory and housed in the animal facility (University Laboratory Animal Resources, ULAR) at The Ohio State University under conventional conditions with constant temperature and humidity, and fed with standard diet. Treatment of mice was performed between 5 and 7 weeks of age as earlier described, and in accordance with the guidelines of the Institutional Animal Care and Use Committee at The Ohio State University. Efficacy of NBD was assessed comparing four groups (n = 5 each) of mdx mice treated either with vehicle or 3, 2, or 1 × per week with NBD by intraperitoneal (IP) delivery. Two separate groups (n = 10) were dosed subcutaneously (SQ) with vehicle or NBD, and finally two groups (n = 5) were treated with vehicle or NBD by intravenous (IV) delivery. Vascular access ports (VAP) were placed subcutaneously over the dorsal torso and a catheter was surgically inserted into the jugular vein. The catheter was kept clear by a pre- and post-wash with heparin.
For mice muscles, histopathological assessment was performed as earlier described. For canine samples, CS, lateral gastrocnemius, vastus lateralis, and diaphragm muscles were assessed at the end of the 4-month treatment period when dogs were necropsied. Muscle samples were snap frozen in isopentane cooled in liquid nitrogen, and stored at -80°C. A total of 16 dogs (3 wild type, 2 wild type + NBD, 5 untreated GRMD, and 6 GRMD + NBD) were assessed. […] For each stain, quantitation was performed on three 10 μm sections of each muscle. To determine the degree of inflammation, cells that stained with a canine specific macrophage PM2K antibody were quantitated. Muscle damage was assessed by scoring for IgG-positive myofibers using immunofluorescence, and necrotic foci by hematoxylin and eosin (H&E) staining. Centrally located nuclei (CLN) were quantified on H&E sections to determine the degree of regeneration. Staining was quantitated on an Olympus BX51 microscope with Microsuite Five software (Olympus Soft Imaging Solutions GmbH, Center Valley, PA, USA). […]

[2] = test system: GRMD dogs; assay: Tibiotarsal joint (TTJ) tetanic force/torque, GRMD dogs; assay type: in vivo, dog; details: for Absolute Tetanic Extension Force / Absolute Tetanic Extension Torque / Absolute Tetanic Flexion Force / Absolute Tetanic Flexion Torque / Body-mass Corrected Tetanic Extension Force / Body-mass Corrected Tetanic Extension Torque / Body-mass Corrected Tetanic Flexion Force / Body-mass Corrected Tetanic Flexion Torque: n = 6
Description: The GRMD disease phenotype was initially determined based on elevation of serum creatine kinase and confirmed by PCR. Two cohorts of GRMD dogs were treated with a 4-month course of NBD (10 mg/kg, IV) (American Peptides; Sunnyvale, CA, USA), beginning at approximately 2 months of age. The first cohort included four GRMD (Wasabi, Pepper, Hiver, and Automne) and two wild type (Cumin and Fennel) dogs, while the second cohort included two GRMD (Peach and Kiwi) and one wild type (Mango) dog. Results were compared with those collected from 10 untreated GRMD dogs (Cilantro, Lyle, Napoleon, Summer, Jane, Cosmo, Dorothy, Toto, Hickory, and Zeke) and eight age-matched wild type littermates (Oregano, Parsley, Kip, Pedro, Pinkman, Saul, Heisenberg, and Tuco) through a parallel, but separate, natural history study in which functional, magnetic resonance imaging (MRI), and pathologic data were collected.
For all tests, dogs were anesthetized (premeds: acepromazine maleate (0.02 mg/kg), butorphanol (0.4 mg/kg), and atropine sulfate (0.04 mg/kg); masked/intubated; and maintained with sevoflurane). To assess force and eccentric contraction decrement (below), dogs were positioned in dorsal recumbence in a custom-made stereotactic frame that aligns the tibia parallel to the table at a 90° angle to the femur. The angle at which maximal joint torque is generated during isometric contractions has been termed the optimal joint angle, which is analogous to the optimal fiber length (Lo) for individual muscle force measurements. Our choice of 90° as the optimal joint angle was based on studies in which torque was measured over a range of angles. The length-tension relationship was not shifted for normal versus GRMD dogs. TTJ flexion and extension torque (N-m) was measured by a rapid-response servomotor/force transducer (model 310B LR, Aurora Scientific, Inc., Aurora, ON, Canada) controlled by a PC using custom LabView software. Either the common peroneal (TTJ flexion) or tibial (TTJ extension) nerve was stimulated using paired stimulating and reference 27-gauge monopolar electrodes placed just distal to the fibular head (common peroneal nerve) or within the gastrocnemius muscles (tibial nerve), respectively. As a result, the paw of the distal pelvic limb pulled (flexion) or pushed against (extension) a pedal affixed to a transducer, providing a measure of isometric torque. Supramaximal 150 V, 100 μs pulses were applied (Model S48 Solid State Square Wave Stimulator; Grass Instruments, Quincy, MA, USA) in a tetanic run of 250 pulses (50/s). The site of contact for the paw with the lever (moment arm) was estimated to be 75% of the distance between the point of the hock and the distal digit. Torque (Newton-meters) was divided by the moment arm (meters) to convert to force (Newtons).

[3] = NBD group, age 2 months (start of treatment)
[4] = age 6 months, NBD 10 mg/kg IV 3x weekly for 4 months

“TALDWSWLQTE [NBD, NBD peptide (…) fused to an Antennapedia protein transduction domain]” was tested, and the “Histopathologic improvement with reduced treatment frequencies” value ([1]; IP 10 mg/kg, 2x or 1x per week compared to 3x per week, n = 5 per group) was “less pronounced”, the “Histopathologic improvement after intravenous dosing” value ([1]; IV via VAP, 10 mg/kg 3x weekly, n = 5 per group) was “significant histopathologic improvement” and the “Reduction of muscle inflammation and necrosis after subcutaneous dosing” value ([1]; SQ 10 mg/kg 3x weekly, n = 10 per group) was “no such improvements were observed”. The “Absolute Tetanic Extension Force” value [2, 3] was 7.50 ± 2.09 N, the “Absolute Tetanic Extension Torque” value [2, 3] was 0.62 ± 0.16 Nm and the “Absolute Tetanic Flexion Force” value [2, 3] was 2.05 ± 0.58 N. For the same sequence, the “Absolute Tetanic Flexion Torque” value [2, 3] was 0.17 ± 0.06 Nm, the “Body-mass Corrected Tetanic Extension Force” value [2, 3] was 2.11 ± 0.70 N/kg and the “Body-mass Corrected Tetanic Extension Torque” value [2, 3] was 0.21 ± 0.07 Nm/kg. The “Body-mass Corrected Tetanic Flexion Force” value [2, 3] was 0.57 ± 0.15 N/kg, the “Body-mass Corrected Tetanic Flexion Torque” value [2, 3] was 0.05 ± 0.01 Nm/kg and the “Absolute Tetanic Extension Force” value [2, 4] was 34.30 ± 9.65^1**,2 N. For the same sequence, the “Absolute Tetanic Extension Torque” value [2, 4] was 4.55 ± 1.49^1**,2 Nm, the “Absolute Tetanic Flexion Force” value [2, 4] was 6.79 ± 1.13^1 N and the “Absolute Tetanic Flexion Torque” value [2, 4] was 0.89 ± 0.18^1 Nm. For the same sequence, the “Body-mass Corrected Tetanic Extension Force” value [2, 4] was 2.70 ± 0.65^2 N/kg, the “Body-mass Corrected Tetanic Extension Torque” value [2, 4] was 0.36 ± 0.08^1*,2 Nm/kg and the “Body-mass Corrected Tetanic Flexion Force” value [2, 4] was 0.55 ± 0.13 N/kg. The “Body-mass Corrected Tetanic Flexion Torque” value [2, 4] was 0.07 ± 0.02^1 Nm/kg and the “Increase in extension force vs untreated GRMD dogs” value ([2]; pelvic limb, body-mass corrected, NBD 10 mg/kg IV 3x weekly for 4 months, P = 0.038) was 73%.
